Assay results published in the supplement of paper PMC4862054.

What was measured:
Settings in all cases: incubation time: 72 h
DU-4475 [1] = assay: normalised viability (% of control), CellTiter-Blue; higher = more viable cells (100 = DMSO, 0 = benzethonium chloride kill control)
Procedure: (§1)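 DSRT, CellTiter-Blue viability, 72 h incubation. Signal is normalised to DMSO and benzethonium chloride controls. Value is the normalised response at dose 1.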

HCC1937 [2] = assay: as above
Procedure: as §1

HDQ-P1 [3] = assay: as above
Procedure: as §1

CAL-85-1 [4] = assay: as above
Procedure: as §1

SK-BR-3 [5] = assay: as above
Procedure: as §1

MDA-MB-231 [6] = assay: as above
Procedure: as §1

CAL-120 [7] = assay: as above
Procedure: as §1

Hs578T [8] = assay: as above
Procedure: as §1

MDA-MB-436 [9] = assay: as above
Procedure: as §1

CAL-148 [10] = assay: as above
Procedure: as §1

MFM-223 [11] = assay: as above
Procedure: as §1

BT-474 [12] = assay: as above
Procedure: as §1

MDA-MB-468 [13] = assay: as above
Procedure: as §1

HCC1143 [14] = assay: as above
Procedure: as §1

CAL-51 [15] = assay: as above
Procedure: as §1

HCC1599 [16] = assay: as above
Procedure: as §1

BT-549 [17] = assay: as above
Procedure: as §1

MDA-MB-453 [18] = assay: as above
Procedure: as §1

DU-4475 [19] = assay: normalised response (% of control), CellTiter-Glo; higher = more viable cells (100 = DMSO, 0 = benzethonium chloride kill control)
How it was run: (§2)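 Breast cancer cell lines, seeded at 20 µl suspension per well, were incubated for 72 h in 384-well plates containing compound at 5 concentrations. These concentrations rose in 10-fold steps over a 10,000-fold range set for each compound. CellTox Green fluorescence (485/520 nm) was read, then CellTiter-Glo luminescence after 10 min at room temperature, and each plate was normalised to 0.1 % DMSO (100) and a positive kill control (0). Values are normalised signals, each at one concentration.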

HCC1937 [20] = assay: as above
How it was run: as §2

HDQ-P1 [21] = assay: as above
How it was run: as §2

CAL-85-1 [22] = assay: as above
How it was run: as §2

SK-BR-3 [23] = assay: as above
How it was run: as §2

MDA-MB-231 [24] = assay: as above
How it was run: as §2

CAL-120 [25] = assay: as above
How it was run: as §2

Hs578T [26] = assay: as above
How it was run: as §2

MDA-MB-436 [27] = assay: as above
How it was run: as §2

CAL-148 [28] = assay: as above
How it was run: as §2

MCF-10A = assay: as above
How it was run: as §2

MFM-223 [29] = assay: as above
How it was run: as §2

BT-474 [30] = assay: as above
How it was run: as §2

MDA-MB-468 [31] = assay: as above
How it was run: as §2

HCC1143 [32] = assay: as above
How it was run: as §2

CAL-51 [33] = assay: as above
How it was run: as §2

HCC1599 [34] = assay: as above
How it was run: as §2

BT-549 [35] = assay: as above
How it was run: as §2

MDA-MB-453 [36] = assay: as above
How it was run: as §2

Row | Structure (SMILES) | normalised viability (DU-4475 [1]) [%] | normalised viability (HCC1937 [2]) [%] | normalised viability (HDQ-P1 [3]) [%] | normalised viability (CAL-85-1 [4]) [%] | normalised viability (SK-BR-3 [5]) [%] | normalised viability (MDA-MB-231 [6]) [%] | normalised viability (CAL-120 [7]) [%] | normalised viability (Hs578T [8]) [%] | normalised viability (MDA-MB-436 [9]) [%] | normalised viability (CAL-148 [10]) [%] | normalised viability (MFM-223 [11]) [%] | normalised viability (BT-474 [12]) [%] | normalised viability (MDA-MB-468 [13]) [%] | normalised viability (HCC1143 [14]) [%] | normalised viability (CAL-51 [15]) [%] | normalised viability (HCC1599 [16]) [%] | normalised viability (BT-549 [17]) [%] | normalised viability (MDA-MB-453 [18]) [%] | normalised response (DU-4475 [19]) [%] | normalised response (HCC1937 [20]) [%] | normalised response (HDQ-P1 [21]) [%] | normalised response (CAL-85-1 [22]) [%] | normalised response (SK-BR-3 [23]) [%] | normalised response (MDA-MB-231 [24]) [%] | normalised response (CAL-120 [25]) [%] | normalised response (Hs578T [26]) [%] | normalised response (MDA-MB-436 [27]) [%] | normalised response (CAL-148 [28]) [%] | normalised response (MCF-10A) [%] | normalised response (MFM-223 [29]) [%] | normalised response (BT-474 [30]) [%] | normalised response (MDA-MB-468 [31]) [%] | normalised response (HCC1143 [32]) [%] | normalised response (CAL-51 [33]) [%] | normalised response (HCC1599 [34]) [%] | normalised response (BT-549 [35]) [%] | normalised response (MDA-MB-453 [36]) [%]
1 | C[C@]12C=CC(=O)C=C1CC[C@@H]1[C@@H]2C(=O)C[C@@]2(C)[C@H]1CC[C@]2(O)C(=O)CO [Prednisone] (1 nM) | 110 | 93.5 | 98.1 | 100 | 90.8 | 95.9 | 84.3 | 104 | 110 | 101 | 96.2 | 126 | 104 | 92.8 | 99.5 | 113 | 105 | 103 | 103 | 99.9 | 101 | 99.1 | 109 | 98.5 | 109 | 97.1 | 110 | 106 | 98.2 | 106 | 99.4 | 104 | 101 | 92.7 | 100 | 99.8 | 111
2 | CCN(CC)CCOc1ccc(C(=C(Cl)c2ccccc2)c2ccccc2)cc1 [Clomifene] (1 nM) | 92.8 | 97.7 | 125 | 89 | 96.7 | 104 | 90.2 | 123 | 111 | 105 | 101 | 95.6 | 103 | 89.7 | 94.5 | 79.7 | 116 | 102 | 104 | 96.9 | 99.2 | 104 | 108 | 106 | 95.8 | 101 | 111 | 109 | 95.8 | 99.6 | 106 | 98.8 | 105 | 102 | 99.8 | 101 | 106
3 | NC1(c2ccc(-c3nc4ccn5c(=O)[nH]nc5c4cc3-c3ccccc3)cc2)CCC1 [MK-2206] (0.1 nM) | 118 | 129 | 113 | 108 | 107 | 106 | 106 | 107 | 108 | 106 | 100 | 115 | 111 | 118 | 99.9 | 94.9 | 114 | 105 | 101 | 100 | 103 | 98.7 | 110 | 106 | 112 | 97.2 | 98.3 | 110 | 107 | 112 | 101 | 103 | 102 | 87.9 | 87.8 | 99.5 | 98.9
